In US9133179B2, “2-methoxy-pyridin-4-yl-derivatives” (Actelion Pharmaceuticals Ltd., priority 2011, dated 2015):

Key:
[1] = target: T1, human S1P1 (EDG1) receptor (Homo sapiens, UniProt P21453); assay: S1P1 β-arrestin recruitment (Tango) assay to determine EC50 values; type: cell-based; conditions: Tango-EDG1 bla U2OS cells, 16 h incubation
T1 construct: host or cells: U2OS (Tango EDG1-bla U2OS)
From the text: S1P1 β-Arrestin Recruitment (Tango) Assay to Determine EC50 Values
Upon ligand activation, G protein-coupled receptors (GPCR) trigger two pathways that independently transduce signals to the cell: one through heterotrimeric GTP-binding proteins (G proteins) and one through β-arrestins. Agonist-induced GPCRs recruit β-arrestin proteins, which then bind to the carboxy-terminal domain of ligand-activated GPCRs. The amount of β-arrestin recruitment can be used to assess the potency and efficacy of GPCR activating ligands.
To measure the potency and efficacy of compounds as S1P1 (EDG1) receptor agonists, Tango™-EDG1 bla U2OS cells (Invitrogen, USA, Catalog #K1520) are used. The Tango™ GPCR technology is based on GeneBLAzer β-lactamase reporter cell assays, which uses a mammalian-optimized β-lactamase reporter gene (bla) combined with a FRET-enabled substrate. The host cells, U2OS, stably express a human S1P1 (EDG1) receptor/transcription factor (TF) fusion protein. The cells also express a recombinant protease tagged β-arrestin protein, which is recruited to the S1P1 receptor upon ligand stimulation and specifically cleaves the S1P1-TF fusion protein. The released TF activates the β-lactamase (bla) reporter gene. To measure the reporter gene activity, cells are loaded with a fluorescent substrate containing two chemically coupled fluorophores, coumarin and fluorescein. […] In the presence of bla, the chemical bond is cleaved and FRET is inhibited. […] The amount of β-arrestin recruitment is proportional to the increase in blue fluorescence.
Tango™-EDG1 bla U2OS cells are cultivated in McCoy's 5A containing 10% dialyzed FBS, 0.1 mM NEAA, 25 mM HEPES, 1 mM sodium pyruvate, 1% Penicillin/Streptomycin, 200 μg/ml zeocin, 50 μg/ml hygromycin and 100 μg/ml geneticin (Invitrogen, USA). Cells are detached with trypsin, resuspended in medium and then counted.
Compounds (10 mM stock in DMSO) are diluted first in DMSO. The pre-diluted compounds solutions are then transferred into Assay Medium/0.1% fatty acid free BSA to reach a fourfold concentrated compound stock, which is applied to the cells to reach the final compound concentrations that range from 10 μM to 0.0005 nM (0.5% final DMSO). Cells are then incubated for 16 h at 37° C. and 5% CO2.

[2] = system: circulating lymphocytes; assay: Assessment of in vivo efficacy: circulating lymphocytes after oral administration to Wistar rats; parameters: species or system rat; conditions: Rattus norvegicus, Lymphocyte; 6 h after oral administration of 10 mg/kg, normotensive male Wistar rats, compared to vehicle group; read-out: Lymphocyte counts
Method: Assessment of In Vivo Efficacy
The efficacy of the compounds of Formula (I) is assessed by measuring the circulating lymphocytes after oral administration of 3 to 30 mg/kg of a compound of Formula (I) to normotensive male Wistar rats. The animals are housed in climate-controlled conditions with a 12 h-light/dark cycle, and have free access to normal rat chow and drinking water. […] Full blood is subjected to hematology using Advia Hematology system (Bayer Diagnostics, Zurich, Switzerland).
All data are presented as mean±SEM. Statistical analyses are performed by analysis of variance (ANOVA) using Statistica (StatSoft) and the Student-Newman-Keuls procedure for multiple comparisons. The null hypothesis is rejected when p<0.05.

T1 sequence (P21453 whole entry): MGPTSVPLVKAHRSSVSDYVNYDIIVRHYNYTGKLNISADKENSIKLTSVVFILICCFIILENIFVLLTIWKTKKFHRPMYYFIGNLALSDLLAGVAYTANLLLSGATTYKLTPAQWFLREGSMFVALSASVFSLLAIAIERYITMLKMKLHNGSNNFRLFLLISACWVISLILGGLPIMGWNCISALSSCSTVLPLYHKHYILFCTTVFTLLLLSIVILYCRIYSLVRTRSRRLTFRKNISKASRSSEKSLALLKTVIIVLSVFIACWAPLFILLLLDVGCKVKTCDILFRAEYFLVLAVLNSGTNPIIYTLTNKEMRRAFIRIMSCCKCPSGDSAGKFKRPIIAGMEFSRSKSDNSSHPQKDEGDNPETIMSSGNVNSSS

| SMILES | EC50 [1] | change in vivo at 10 mg/kg [2] |
| --- | --- | --- |
| CCc1cc(-c2noc(-c3cc(OC)nc(C4CCCC4)c3)n2)cc(C)c1OCCN(C)CC(=O)O [Example 16, 2-((2-(4-(5-(2-Cyclopentyl-6-methoxypyridin-4-yl)-1,2,4-oxadiazol-3-yl)-2-ethyl-6-methylphenoxy)ethyl)(methyl)amino)acetic acid] | 0.2 nM | -75% |
| CCc1cc(-c2noc(-c3cc(OC)nc(C4CCCC4)c3)n2)cc(C)c1OC[C@@H](O)CNCCC(=O)O [Example 10] | 0.06 nM | -51% |
| CCc1cc(-c2noc(-c3cc(OC)nc(C4CCCC4)c3)n2)cc(C)c1OCCNC(CO)CO [Example 25, 2-((2-(4-(5-(2-Cyclopentyl-6-methoxypyridin-4-yl)-1,2,4-oxadiazol-3-yl)-2-ethyl-6-methylphenoxy)ethyl)amino)propane-1,3-diol] | 4.23 nM |  |
| CCc1cc(-c2noc(-c3cc(OC)nc(C4CCCC4)c3)n2)cc(C)c1OCCCN(C)C(=O)CO [Example 30, N-(3-(4-(5-(2-Cyclopentyl-6-methoxypyridin-4-yl)-1,2,4-oxadiazol-3-yl)-2-ethyl-6-methylphenoxy)propyl)-2-hydroxy-N-methylacetamide] | 7.98 nM | -75% |
| CCc1cc(-c2noc(-c3cc(OC)nc(C4CCCC4)c3)n2)cc(C)c1OC[C@@H](O)CNC(=O)CCC(=O)O [Example 15, (S)-4-((3-(4-(5-(2-Cyclopentyl-6-methoxypyridin-4-yl)-1,2,4-oxadiazol-3-yl)-2-ethyl-6-methylphenoxy)-2-hydroxypropyl)amino)-4-oxobutanoic acid] | 0.02 nM | -55% |
| CCc1cc(-c2noc(-c3cc(OC)nc(C4CCCC4)c3)n2)cc(C)c1OC[C@@H](O)CN(C)CC(=O)O [Example 11, (S)-2-((3-(4-(5-(2-Cyclopentyl-6-methoxypyridin-4-yl)-1,2,4-oxadiazol-3-yl)-2-ethyl-6-methylphenoxy)-2-hydroxypropyl)(methyl)amino)acetic acid] | 0.2 nM | -60% |
| CCc1cc(-c2noc(-c3cc(OC)nc(C4CCCC4)c3)n2)cc(C)c1OCCN1CCC(C(=O)O)C1 (racemic) [Example 8, rac-1-(2-(4-(5-(2-Cyclopentyl-6-methoxypyridin-4-yl)-1,2,4-oxadiazol-3-yl)-2-ethyl-6-methylphenoxy)ethyl)pyrrolidine-3-carboxylic acid] | 0.3 nM | -66% |
| CCc1cc(-c2noc(-c3cc(OC)nc(C4CCCC4)c3)n2)cc(C)c1OCCCNCCC(=O)O [Example 19, 3-((3-(4-(5-(2-Cyclopentyl-6-methoxypyridin-4-yl)-1,2,4-oxadiazol-3-yl)-2-ethyl-6-methylphenoxy)propyl)amino)propanoic acid] | 0.4 nM |  |
| CCc1cc(-c2noc(-c3cc(OC)nc(C4CCCC4)c3)n2)cc(C)c1OCCN(C)CCC(=O)O [Example 17, 3-((2-(4-(5-(2-Cyclopentyl-6-methoxypyridin-4-yl)-1,2,4-oxadiazol-3-yl)-2-ethyl-6-methylphenoxy)ethyl)(methyl)amino)propanoic acid] | 0.2 nM |  |
| CCc1cc(-c2noc(-c3cc(OC)nc(C4CCCC4)c3)n2)cc(C)c1OCCCNC(CO)CO [Example 26, 2-((3-(4-(5-(2-Cyclopentyl-6-methoxypyridin-4-yl)-1,2,4-oxadiazol-3-yl)-2-ethyl-6-methylphenoxy)propyl)amino)propane-1,3-diol] | 15.1 nM |  |
| CCc1cc(-c2noc(-c3cc(OC)nc(C4CCCC4)c3)n2)cc(C)c1OCCCNCC(O)CO (racemic) [Example 28, rac-3-((3-(4-(5-(2-Cyclopentyl-6-methoxypyridin-4-yl)-1,2,4-oxadiazol-3-yl)-2-ethyl-6-methylphenoxy)propyl)amino)propane-1,2-diol] | 25.6 nM |  |
| CCc1cc(-c2noc(-c3cc(OC)nc(C4CCCC4)c3)n2)cc(C)c1OCCCNCCO [Example 24, 2-((3-(4-(5-(2-Cyclopentyl-6-methoxypyridin-4-yl)-1,2,4-oxadiazol-3-yl)-2-ethyl-6-methylphenoxy)propyl)amino)ethanol] | 69 nM |  |
| CCc1cc(-c2noc(-c3cc(OC)nc(C4CCCC4)c3)n2)cc(C)c1OCCNCCO [Example 23, 2-((2-(4-(5-(2-Cyclopentyl-6-methoxypyridin-4-yl)-1,2,4-oxadiazol-3-yl)-2-ethyl-6-methylphenoxy)ethyl)amino)ethanol] | 24.7 nM |  |
| CCc1cc(-c2noc(-c3cc(OC)nc(C4CCCC4)c3)n2)cc(C)c1OCCCN1CC(C(=O)O)C1 [Example 22, 1-(3-(4-(5-(2-Cyclopentyl-6-methoxypyridin-4-yl)-1,2,4-oxadiazol-3-yl)-2-ethyl-6-methylphenoxy)propyl)azetidine-3-carboxylic acid] | 2.95 nM |  |
| CCc1cc(-c2noc(-c3cc(OC)nc(C4CCCC4)c3)n2)cc(C)c1OC[C@@H](O)CNC(=O)CC(=O)O [Example 14] | 0.03 nM |  |
| COc1cc(-c2nc(-c3cc(Cl)c(OCCCNC(=O)CO)c(OC)c3)no2)cc(C2CCCC2)n1 [Example 38, N-(3-(2-Chloro-4-(5-(2-cyclopentyl-6-methoxypyridin-4-yl)-1,2,4-oxadiazol-3-yl)-6-methoxyphenoxy)propyl)-2-hydroxyacetamide] | 0.893 nM |  |

Continued, in another order:

| EC50 [1] | SMILES | change in vivo at 10 mg/kg [2] |
| --- | --- | --- |
| 0.6 nM | COc1cc(-c2nc(-c3cc(Cl)c(OCCN4CC(C(=O)O)C4)c(OC)c3)no2)cc(C2CCCC2)n1 [Example 52, 1-(2-(2-Chloro-4-(5-(2-cyclopentyl-6-methoxypyridin-4-yl)-1,2,4-oxadiazol-3-yl)-6-methoxyphenoxy)ethyl)azetidine-3-carboxylic acid] | -71% |
| 0.1 nM | COc1cc(-c2nc(-c3cc(C)c(OCCN4CC(C(=O)O)C4)c(Cl)c3)no2)cc(C2CCCC2)n1 [Example 44, 1-(2-(2-Chloro-4-(5-(2-cyclopentyl-6-methoxypyridin-4-yl)-1,2,4-oxadiazol-3-yl)-6-methylphenoxy)ethyl)azetidine-3-carboxylic acid] | -62% |
| 0.1 nM | CCc1cc(-c2nc(-c3cc(OC)nc(C4CCCC4)c3)no2)cc(C)c1OCCNCC(=O)O [Example 55, 2-((2-(4-(3-(2-Cyclopentyl-6-methoxypyridin-4-yl)-1,2,4-oxadiazol-5-yl)-2-ethyl-6-methylphenoxy)ethyl)amino)acetic acid] | -72% |
| 0.05 nM | CCc1cc(-c2nnc(-c3cc(OC)nc(C4CCCC4)c3)o2)cc(C)c1OC[C@@H](O)CNC(=O)CCC(=O)O [Example 66] |  |
| 0.2 nM | CCc1cc(-c2nc(-c3cc(OC)nc(C4CCCC4)c3)no2)cc(C)c1OCCN1CC(C(=O)O)C1 [Example 58, 1-(2-(4-(3-(2-Cyclopentyl-6-methoxypyridin-4-yl)-1,2,4-oxadiazol-5-yl)-2-ethyl-6-methylphenoxy)ethyl)azetidine-3-carboxylic acid] |  |
| 0.1 nM | CCc1cc(-c2nc(-c3cc(OC)nc(C4CCCC4)c3)no2)cc(C)c1OCCN(C)CC(=O)O [Example 56, 2-((2-(4-(3-(2-Cyclopentyl-6-methoxypyridin-4-yl)-1,2,4-oxadiazol-5-yl)-2-ethyl-6-methylphenoxy)ethyl)(methyl)amino)acetic acid] |  |
| 0.7 nM | CCc1cc(-c2nnc(-c3cc(OC)nc(C4CCCC4)c3)o2)cc(C)c1OC[C@@H](O)CNC(CO)CO [Example 65] |  |
| 1.8 nM | CCc1cc(-c2noc(-c3cc(OC)nc(C4CCCC4)c3)n2)cc(C)c1OCCCC(=O)NCCO [Example 46, 4-(4-(5-(2-Cyclopentyl-6-methoxypyridin-4-yl)-1,2,4-oxadiazol-3-yl)-2-ethyl-6-methylphenoxy)-N-(2-hydroxyethyl)butanamide] |  |
| 3 nM | CCc1cc(-c2nnc(-c3cc(OC)nc(C4CCCC4)c3)o2)cc(C)c1OC[C@@H](O)CNCCO [Example 64, (S)-1-(4-(5-(2-Cyclopentyl-6-methoxypyridin-4-yl)-1,3,4-oxadiazol-2-yl)-2-ethyl-6-methylphenoxy)-3-((2-hydroxyethyl)amino)propan-2-ol] |  |
